# Assay results as given in patent US20220133701A1, “METHODS OF TREATING PAIN” (Yeda Research and Development Co. Ltd., priority 2019, published 2022).
# “Also recorded” adds a separate entry of the source.
# T1: importin α3 (endogenous, mouse DRG sensory neurons) (mouse, UniProt O35343 2-521)
# T1 construct: whole, on cells; Endogenous protein detected in fixed neurons with a rabbit polyclonal anti-importin α3 antibody in the proximity ligation assay; The protein is intracellular, not on the cell surface; also called Impα3; Karyopherin Subunit Alpha 4
# T1 sequence (looked up): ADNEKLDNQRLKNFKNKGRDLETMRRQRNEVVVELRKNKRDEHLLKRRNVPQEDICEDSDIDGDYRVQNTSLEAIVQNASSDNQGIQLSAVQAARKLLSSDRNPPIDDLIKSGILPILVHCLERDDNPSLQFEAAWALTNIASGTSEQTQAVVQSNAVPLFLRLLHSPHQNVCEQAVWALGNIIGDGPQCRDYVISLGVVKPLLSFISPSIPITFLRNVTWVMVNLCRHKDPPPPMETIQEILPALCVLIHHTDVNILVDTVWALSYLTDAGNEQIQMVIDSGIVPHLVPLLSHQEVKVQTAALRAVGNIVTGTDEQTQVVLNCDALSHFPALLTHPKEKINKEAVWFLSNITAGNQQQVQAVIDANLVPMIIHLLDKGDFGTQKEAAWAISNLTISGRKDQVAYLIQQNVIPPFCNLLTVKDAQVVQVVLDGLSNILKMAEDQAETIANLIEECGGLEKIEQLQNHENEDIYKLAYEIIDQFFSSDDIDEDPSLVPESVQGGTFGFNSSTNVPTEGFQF
# Assays:
# mice = test: Response to noxious heat (metal probe heated to 58° C. applied to paw, paw withdrawal latency); assay type: in vivo, mouse; conditions: for responsiveness to noxious heat: WT mice, 1 hour following i.p. injection, sulmazole 0.5 mg/kg, sulfamethizole 1.25 mg/kg (FIG. 8A)
# Procedure: Pain Models—Responses to noxious heat were assessed by applying a metal probe heated to 58° C. to a forelimb paw, while holding the animal. Paw withdrawal latency was timed, typically ranging between 2-4 seconds in wild-type animals. If the paw was not withdrawn within 20 seconds the assay was terminated. The test was repeated three times for each animal, with at least 20 minute intervals between repeats. Heat sensitivity was also assessed using the hot plate test [L. Urien et al., Sci Rep 7, 43493 (2017)]. To this end, mice were placed individually in a 20 cm high Plexiglas box on a metal surface set at 52, 55 or 58° C., and the latency to initiate a nociceptive response (licking, hind paws shaking, jumping) was monitored by videotape. Mice were removed from the plate immediately after a nociceptive response.
# SNI mice [1] = test: Spared nerve injury (SNI) model of neuropathic pain, paw withdrawal threshold (PWT) by Von Frey test; assay type: in vivo, mouse; conditions: for paw withdrawal threshold (PWT) by the Von Frey test: SNI, 60 days following establishing the model, two i.p. injections with 1 week interval, sulmazole 1.25 mg/kg, sulfamethizole 3.12 mg/kg, vs vehicle (FIG. 8B); for relief in the SNI model of neuropathic pain: intraperitoneal injection at both early and late stages of chronic pain (FIGS. 8B, 21A-B, 22A-B); for mechanosensitivity, paw withdrawal threshold by Von Frey test, dose dependence: one hour following i.p. treatment, one week following establishing SNI (FIGS. 21A-B); for mechanosensitivity, Von Frey tests, time dependence: one week after SNI, 1, 5 and 24 hours following i.p. injection (FIGS. 22A-B)
# Procedure: (§1) Chronic neuropathic pain was assessed using the spared nerve injury (SNI) model^13. Mice were anaesthetized with Ketamine/Xylazine (10 mg/kg body weight, intraperitoneal). The skin on the lateral surface of the thigh was incised and a section was made directly through the biceps femoris muscle in order to expose the sciatic nerve and its three terminal branches: the sural, common peroneal and tibial nerves. The SNI procedure comprised an axotomy and ligation of the tibial and common peroneal nerves leaving the sural nerve intact. The peroneal and the tibial nerves were tight-ligated and sectioned distal to the ligation. […] Following, mice were evaluated over a period of three months.
# (§2) Von Frey tests of sensitivity to mechanical stimuli were conducted as previously described [Marvaldi et al. Dev Neurobiol 75, 217 (2015)]. Briefly, mice were placed in acrylic chambers suspended above a wire mesh grid and allowed to habituate to the testing apparatus for one hour prior to experiments. When the mouse was calm, the von Frey filaments were pressed against the plantar surface of the paw until the filament buckled and held for a maximum of 3 seconds. A positive response was noted if the paw was sharply withdrawn on application of the filament. Testing began with filament target force 13.7 milliNewtons and progressed according to an up-down method. 2 gram Von Frey filaments were used to assess sensitivity to noxious mechanical stimulation, scoring mice responses as follows: 0, no response; 1, visible signs of discomfort without leg withdrawal; 2, withdrawal of the leg.
# [2] = system: c-Fos nuclear localization in DRG neurons; test: c-Fos nuclear localization in cultured DRG neurons (immunostaining, quantified); assay type: cell-based, mouse; conditions: sulmazole 0.5 mg/kg; for c-Fos nuclear accumulation: importin α3 null DRG neurons cultured following SNI, sulfamethizole 1.25 mg/kg (FIG. 9); for c-Fos nuclear localization: wild type DRG neurons cultured following SNI, sulfamethizole 1.25 mg/kg, vs vehicle (FIGS. 8C-D)
# Procedure: Histology—Lumbar sections of the spinal cord including Dorsal root ganglia (DRGs) were pre-fixed for 6 minutes before dissection of spinal cord and associated DRGs. Lumbar DRG (L4, unless otherwise indicated) and/or spinal cord were then fixed for six hours in 4% PFA in PBS, washed in PBS and equilibrated in 20% w/v sucrose in PBS prior to serial cryo-sectioning at a thickness of 10-20 μm. Following, one set for each DRG was processed for immunostaining. Briefly, sections were rehydrated in PBS, blocked and permeabilized with 15% Donkey Serum, 5-10% BSA, 0.3% Triton X-100 in PBS for 1-3 hours and incubated overnight at 4° C. with Mouse anti-βIII tubulin (TuJ1, abcam, ab18207), Rabbit anti-cFos (Millipore, Ab5, 4-17), Mouse anti-cFOS (Millipore Ab5 4-17, IF 1:500), Mouse anti-Jun (BD transduction Laboratories, IF 1:1000), Rabbit TRPV1 (Alomone ACC-030, 1:500), Rabbit anti-GFP (abcam, ab6556, IF & WB1:500), Goat anti-CGRP (AbD SEROTEC, 1720-9007), MBP (Abcam ab7349, IF 1:500) or Rabbit anti-importin α3 (1:2000) antibodies. On the following day, sections were washed three times in PBS prior to incubation for 2 hours with different combinations of donkey anti-chicken/rabbit/mouse secondary antibodies (Alexa Fluor 647, 594, 488; Jackson Immunoresearch, 1:1000). Following, coverslips or slides were washed and mounted with Flouromount-G™.
# Image processing—Images were acquired on a confocal laser-scanning microscope (Olympus FV1000, 60× oil-immersion objective Olympus UPLSAPO-NA 1.35) using Fluoview (FV10-ASW 4.1) software. DRG sections were scanned using camera settings identical for all genotypes in a given experiment. Images were imported into the Fiji version (www(dot)//fiji(dot)sc) of ImageJ for threshold subtraction and subsequent analyses as detailed below.
# Fluorescence Intensity Analysis: Line scan analysis of fluorescence intensity was carried out on high-resolution confocal z-stack from DRG sections to determine fluorescence intensity of c-FOS and importin α3 over cell regions of interest in-vivo. Briefly, the measurement (in pixels) was effected using the ImageJ drawing tool to draw a line across a neuronal segment covering both cytoplasm and nucleus. All collected traces were then averaged for each experimental group. For comparison of nuclear and cytoplasmic staining intensity 8-bit images of either DRG sections or DRG cultured neurons were processed using the Fiji software. The integrated density was calculated as the sum of the values of the pixels in both cytoplasmic and nuclear regions of interest determined on the basis of TuJ-1, CGRP, TRPV1 or DAPI staining, respectively.
# Neuronal cultures—Adult mouse DRG neurons were cultured as previously described [Perry et al. Neuron 75, 294 (2012)], with plating on poly-L-lysine and laminin coated plates or glass cover slips for 24 hours. Where required, L3-L5 DRG neurons from the uninjured side served as controls for cultures from SNI mice.
# SNI mice [3] = test: Noxious mechanosensitivity of SNI mice, Von Frey filaments of 2 grams force, score 0-2; assay type: in vivo, mouse; conditions: score 0 to 2 (FIG. 22C)
# Procedure: as §1
# as §2, with “2 gram Von Frey filaments were used to assess sensitivity to noxious mechanical stimulation, scoring mice responses as follows: 0, no response; 1, visible signs of discomfort without leg withdrawal; 2, withdrawal of the leg.” left out
# [4] = biological target: T1, importin α3 (endogenous, mouse DRG …); test: proximity ligation assay of endogenous proteins in cultured DRG sensory neurons
# Procedure: Proximity Ligation Assay (PLA) in DRG cultures—The Proximity Ligation Assay (PLA) is used to detect spatial proximity within ˜40 nm of two proteins of interest [O. Söderberg et al., Nature Methods 3, 995-1000 (2006)]. DRG neurons were cultured for 24 hours and fixed for 20 minutes in 4% PFA before blocking and permeabilization with 5% Donkey Serum, 1% BSA, 0. 1% Triton X-100 in PBS for 1 hour. They were then incubated with anti-c-Fos (mouse monocolonal 1:1000, Abcam ab208942) and anti-importin α3 (rabbit polyclonal, 1:2000, Michael Bader lab′, MDC Berlin) overnight at 4° C. PLA was performed using Duolink (Sigma: PLA probe anti-mouse minus DU092004, anti-rabbit plus DU092002 with detection using Far-Red DU092013), according to the manufacturer's instructions. Identification of PLA signal within neurons was effected by subsequent immunostaining with goat anti-CGRP (AbD SEROTEC 1720-9007, IF 1:1000) for 60 minutes at room temperature, followed by three washes and an additional 60 minutes incubation with donkey anti-goat Alexa Fluor 488 (Jackson Immunoresearch, 1:1000). Cells were then washed, mounted with Flouromount-G (ThermoFisher Scientific, cat. #00-4958-02) and imaged by confocal microscopy (Olympus FV1000, 60× oil-immersion objective Olympus UPLSAPO-NA 1.35). PLA signals were quantified by counting puncta in ImageJ. […]
Molecule,c-Fos nuclear accumulation [2],c-Fos nuclear localization [2],response of SNI injured animals to a noxious mechanical stimulus (SNI mice [3]),responsiveness to noxious heat (mice),paw withdrawal threshold (PWT) by the Von Frey test (SNI mice [1]),relief in the SNI model of neuropathic pain (SNI mice [1]),"mechanosensitivity, paw withdrawal threshold by Von Frey test, dose dependence (SNI mice [1])","mechanosensitivity, Von Frey tests, time dependence (SNI mice [1])",further results
O=C(O)CCc1cc(C(=O)c2ccc(OC3CCCC3)cc2O)ccc1OCc1ccc2c(=O)[nH]oc2c1 [T-5224],,,,,,,,,"response to noxious heat (mice; WT (+/+) mice, 20 mg/kg, i.p. (FIGS. 6J-K)): reduced the response to noxious heat; response to noxious heat (mice; importin α3 null (−/−) mice, 20 mg/kg, i.p. (FIGS. 6J-K)): no additional effect beyond the already existing attenuation; paw withdrawal threshold (PWT) in response to noxious heat (mice; wild-type mice, i.p. at the indicated doses, over eight days post-treatment (FIGS. 7A-B)): reduced paw withdrawal in response to noxious heat; also recorded: most marked effect was observed one day following injection of a dose of 10 mg/kg; paw withdrawal in Von Frey tests (SNI mice [1]; wild type animals one week following induction of SNI, 10 mg/kg (FIG. 18)): did ameliorate the paw withdrawal latency"
NCC1(CC(=O)O)CCCCC1 [gabapentin],,,,,,,,,"paw withdrawal threshold (PWT) in Von Frey tests (SNI mice [1]; SNI mice, 100 mg/kg intraperitoneal two months following establishment of the model, again one week later (FIG. 2D)): significant amelioration of the phenotype"
"Cc1nnc(NS(=O)(=O)c2ccc(N)cc2)s1 [sulfamethizole, 4-Amino-N-(5-methyl-1,3,4-thiadiazol-2-yl)benzenesulfonamide]",neither drug had any further effect,significantly reduced c-Fos nuclear accumulation,provided relief in this assay that was comparable to that provided by knockout or knockdown of importin α3,showed efficacy in the assay,significant effects,time and dose-dependent relief,dose dependent effects,time dependent effects,c-Fos nuclear localization ([2]; listed as Sulfamethizole): Significant reductions in c-Fos nuclear localization
"COc1cc([S+](C)[O-])ccc1-c1nc2ncccc2[nH]1 (stereo not shown) [sulmazole, 2-(2-Methoxy-4-[methylsulfinyl]phenyl)-1H-imidazo(4,5-b)pyridine]",neither drug had any further effect,significantly reduced c-Fos nuclear accumulation,provided relief in this assay that was comparable to that provided by knockout or knockdown of importin α3,showed efficacy in the assay,significant effects,time and dose-dependent relief,dose dependent effects,time dependent effects,c-Fos nuclear localization ([2]; listed as Sulmazole): Significant reductions in c-Fos nuclear localization
"c-Fos (other, mouse, UniProt P01101 1-380, looked up, whole, on cells; Endogenous protein in both assays; The protein is intracellular, not on the cell surface) MMFSGFNADYEASSSRCSSASPAGDSLSYYHSPADSFSSMGSPVNTQDFCADLSVSSANFIPTVTAISTSPDLQWLVQPTLVSSVAPSQTRAPHPYGLPTQSAGAYARAGMVKTVSGGRAQSIGRRGKVEQLSPEEEEKRRIRRERNKMAAAKCRNRRRELTDTLQAETDQLEDEKSALQTEIANLLKEKEKLEFILAAHRPACKIPDDLGFPEEMSVASLDLTGGLPEASTPESEEAFTLPLLNDPEPKPSLEPVKSISNVELKAEPFDDFLFPASSRPSGSETSRSVPDVDLSGSFYAADWEPLHSNSLGMGPMVTELEPLCTPVVTCTPGCTTYTSSFVFTYPEADSFPSCAAAHRKGSSSNEPSSDSLSSPTLLAL",,,,,,,,,binding result [4]: binds
"shFOS1: AAV9 shRNA targeting c-Fos, SEQ ID NO: 17 (nucleic acid) DNA: GATCCGGCGGAGACAGATCAACTTGAAGAAGCTTGTTCAAGTTGATCTGTCTCCGCCTTTTTTT",,,,,,,,,"response to noxious heat (mice; wild type mice after intrathecal injection of AAV9 construct, vs control construct): reduced noxious heat responses"
